Results from patent US9125877B2, “Use of kauranes compounds in the manufacture of medicament” (priority 2004, dated 2015).
Entries after “also recorded” stand apart in the source; their conditions may differ. Read-outs that look alike come from different tables or passages of the source.

How the values were obtained:
[1] = tested on: ischemic heart (occlusion of left coronary artery and reperfusion); experiment: Cardiodynamic parameters in the cardiac ischemia-reperfusion rat model; assay type: in vivo, Sprague-Dawley rats
Experimental: (§1) Rats were anesthetized, the tracheotomy was performed and an intubation cannula was connected to a respirator for artificial respiration. Arterial blood pressure monitored by a pressure gauge via a femoral artery. A Miller pressure gauge was intervened into left ventricular chamber via a carotid artery to monitor ventricular pressure. The pressure gauges were connected to a Power-lab biological real-time data recording system. ECG was monitored and recorded via subcutaneous needle probes on the arms of rats. The parameters recorded including: Mean arterial blood pressure (MAP), left ventricular systolic pressure (LVSP), the first derivatives of left ventricular pressure (±dp/dtMax), left ventricular diastolic pressure (LVDP), left ventricular end diastolic pressure (LVEDP) and heart rate (HR).
(§2) The chest was open by a left-side thoracotomy between the 4th intercostals space. The pericardium was opened to expose the heart. A stainless needle and a silk suture were placed around the left coronary artery (LCD) and a loose snare ligation was formed. After complete the surgery, the animals were allowed to stabilize for 10 minus before the occlusion of LCD by tightening the snare. A success in occlusion was associated with an area of pericardial cyanosis, an elevation of T wave or ST segment in ECG. The ischemia period of occlusion was maintained from 20 or 30 minus. Cardiac reperfusion was then achieved by releasing of the snare and was confirmed by hyperemic blushing of the previous ischemic area of cyanosis and gradually recovery of the changes in ECG signals. The reperfusion period was maintained for 50 to 80 minus. ECG, MAP and other cardiodynamic data were recorded before the ischemia (control), and during the periods of ischemia and reperfusion.
Control group: occlusion of coronary/ischemia-reperfusion. Testing group: occlusion of coronary/ischemia-reperfusion plus compound A or B
In part of the experiments, the time periods for occlusion and release of coronary were set for 30 min and 80 min, in order to enhance the results of ischemia-reperfusion.

[2] = tested on: ventricular tachycardia and fibrillation caused by coronary ischemia; experiment: Arrhythmia (VT, VF) during cardiac ischemia by coronary occlusion; assay type: in vivo, Sprague-Dawley rats; conditions: for VF Duration / VT Duration / VTorVF Onset / VT + VF score: occlusion of coronary for 20 min; for VT + VF score: score = (duration of VT × 1) + (duration of VF × 2)
Experimental: as §1, §2
Arrhythmia of ventricular tachycardia (VT) and fibrillation (VF) are the main causes of death in clinic. In the control group during ischemia, VT occurred in all of the 11 animals, VF occurred in 10 out of the 11 animals, and 3 out of the 11 animals were dead due to continuation of VF. […] The results from both control and testing groups during cardiac ischemia including the frequency of occurrence, onset time and duration of the VT and VF are shown in table 3.

[3] = tested on: ischemic myocardium, myocytes and mitochondria; experiment: Morphology of ischemic myocardium under light and electron microscope; assay type: in vivo, Sprague-Dawley rats
Experimental: At the end of experiments, the ischemic and non-ischemic normal myocardium were excised at the ischemic region respectively from both control or testing groups (compound A 1 mg/kg), and from sham-operated animals at respective region of the heart. The tissues were fixed with paraformaldehyde, embedded in wax, cut into thin or ultra-thin sections, stained and viewed under light or electron microscope.
Analogously to Example 5 except the testing group treated with compound B (2 mg/kg). Myocardiac tissues from non-ischemia, ischemia and testing group animals were excised and prepared as noted above. Myocytes and its ultra structure were examined under light and transmission electron microscope. […] The densities of crestae and matrix appear normal, and the granules normally distributed within mitochondria. […] The histological results were similar to the results from the animal treated with compound A (1 mg/kg) and indicate significant protective effects of compound B on myocardium by alleviating the ischemic damage of myocytes and mitochondria.

cerebral ischemia = experiment: Decapitated mouse model of brain ischemia (mouth-opening); assay type: in vivo, mice
Experimental: Decapitated mouse model: The mouse first decapitated and the movement of mouth opening was monitored as a sign of respiration. The frequency and duration of mouth-opening was used as an index of cerebral function after decapitation.
The animals were randomly assigned into three groups (n=8, equal number in sex): Control group, only vehicle saline were given; Testing group, compound A (4 mg/kg) dissolved in saline were given; and Positive control group, a reference compound Edaravone (8 mg/kg) dissolved in saline were given, Edaravone is an anti-oxidation drug and has protective effects on neuronal injury (Granl A. et al. 1996).
Vehicle or compounds were administrated intraperitonealy 30 minus before decapitation.

Solubility in water = assay type: physicochemical; conditions: free acid, before salt formation
Experimental: The salts can be sodium, potassium or other inorganic salts. A preferred method is to use sodium. The method is the following: A solution of […] of NaOH is prepared. The liquid sodium salt of compound A or B was formed by dissolving 1 g of the compound A or B into 10 ml of the above NaOH solution and adjusting the PH to neutral. This liquid sodium salt can be further diluted with sterile water or mixed with pharmaceutical carrier at needed concentration for parenteral administration. It can be stored at room temperature.

[4] = reported; large amount, under certain condition in vitro; cited from earlier work
rats = conditions: cited from earlier work
ischemic myocardium = experiment: Infarct size of myocardium after ischemia-reperfusion (Evans blue); assay type: in vivo, Sprague-Dawley rats; conditions: compound A 1 mg/kg; control 58.6±4.7%; weight of infarct tissue/(infarct + ischemia tissue)
From the text: as §2, with “The reperfusion period was maintained for 50 to 80 minus.” left out
Determination of the infarct size of myocardium: In both control and testing groups, After the end of reperfusion period, the coronary was occluded, Evans blue dye (1%, 0.5 ml) was injected to determine the ischemic and non-ischemic area of myocardium. […] After weighing the respective tissue samples, the infarction size of myocardium was calculated and express as following: Size of infarction=weight of infarct tissue/(weight of infarct tissue+weight of ischemia tissue) x %.

[5] = tested on: ischemic heart (left anterior descending coronary artery); experiment: Pig coronary ischemia-reperfusion by balloon-tip catheter in LAD; assay type: in vivo
From the text: At an extremely high dose, the said effects may be abrogated. In a pig study in the invention, a balloon-tip catheter was intervened into left anterior descending coronary artery (LAD) under the guidance of X-ray angiograph. Coronary ischemia and reperfusion was reproduced by inflating or deflating the balloon. […] Kaurene compounds at this large dose may initiate an opposite or undesired effect which can diminish or override the therapeutic effects mentioned above.

[6] = No obvious toxicity dose, administered intravenously (the invention); assay type: in vivo
mice = conditions: cited from earlier work
[7] = intravenous injection, previously reported; cited from earlier work
arterial pressure = conditions: 25 mg/kg intraperitoneal in rats; cited from earlier work
[8] = tested on: ischemic heart (occlusion of left coronary artery and reperfusion); experiment: Cardiodynamic parameters in the cardiac ischemia-reperfusion rat model; assay type: in vivo, Sprague-Dawley rats; conditions: stevioside 10 to 15 mg/kg, rats
[9] = compound B 2 mg/kg, before ischemia
[10] = compound B 2 mg/kg, during ischemia
[11] = compound B 2 mg/kg, during reperfusion
[12] = 8 mg/kg intraperitoneal 30 min before decapitation
[13] = compound A 1 mg/kg i.v., before ischemia
[14] = compound A 1 mg/kg i.v., ischemia
[15] = compound A 1 mg/kg i.v., reperfusion
[16] = 4 mg/kg intraperitoneal 30 min before decapitation

Structure (SMILES): C=C1C[C@@]23CC[C@H]4[C@@](C)(CCC[C@@]4(C)C(=O)O)[C@@H]2CC[C@]1(O)C3 (single isomer, unassigned; ent-13) [Compound B, ent-13-hydroxykaur-16-en-18-oic acid]
- +dp/dtMax. LVSP [1, 9]: 8609±543 mmHg/sec
- LVSP [1, 9]: 112±5 mmHg
- +dp/dtMax. LVSP [1, 10]: 7592±433 mmHg/sec
- LVSP [1, 10]: 104±4 mmHg
- +dp/dtMax. LVSP [1, 11]: 8362±498 mmHg/sec
- LVSP [1, 11]: 110±4 mmHg
- VF Duration ([2]; 2 mg/kg): 1 s
- VT Duration ([2]; 2 mg/kg): 21 + 12 sec
- VTorVF Onset ([2]; 2 mg/kg): 660 + 178 sec
- VT + VF score ([2]; 2 mg/kg): 22 + 13
- animals dead during cardiac ischemia ([2]; compound B 2 mg/kg, n=5, control: 3 out of 11 dead): none of the animals are dead
- morphology of ischemic myocardium under light and transmission electron microscope ([3]; compound B 2 mg/kg, comparing with non-ischemia myocytes): Damages of both myocytes and mitochondria were not evident
- Duration of mouth-opening (cerebral ischemia; [12]): 20.1 ± 4.1 s
- Frequency of mouth-opening (cerebral ischemia; [12]): 12.8 ± 2.7
- solubility in water (Solubility in water): not Readily Dissolved in Water
- mutagenic effects [4]: certain mutagenic effects; also recorded: may be mutagenic
- oral median lethal dose (LD50) (rats; rat, in vivo, po): 1500 mg/kg

Structure (SMILES): C[C@@]12CC[C@@H]3[C@@](CC[C@H]4[C@@]3(C)CCC[C@@]4(C)C(=O)O)(CC1=O)C2 [Compound A, (4α,8β,13β)-13-methyl-16-oxo-17-norkauran-18-oic acid]
- hypotension effect ([1]; 1 mg/kg intravenous in rats): no such hypotension effect
- +dp/dt Max.LVSP [1, 13]: 8543 ± 486 mmHg/sec
- HR [1, 13]: 367 ± 13 beat/min
- LVSP [1, 13]: 111 ± 4 mmHg
- MAP [1, 13]: 73 ± 3 mmHg
- +dp/dt Max.LVSP [1, 14]: 7468 ± 558 mmHg/sec
- HR [1, 14]: 375 ± 10 beat/min
- LVSP [1, 14]: 103 ± 3 mmHg
- MAP [1, 14]: 70 ± 5 mmHg
- +dp/dt Max.LVSP [1, 15]: 8431 ± 340 mmHg/sec
- HR [1, 15]: 394 ± 7 beat/min
- LVSP [1, 15]: 114 ± 5 mmHg
- MAP [1, 15]: 76 ± 3 mmHg
- VF Duration ([2]; 1 mg/kg): 1 s
- VT Duration ([2]; 1 mg/kg): 12 + 6 sec
- VTorVF Onset ([2]; 1 mg/kg): 730 + 166 sec
- VT + VF score ([2]; 1 mg/kg): 14 + 7
- survival of cardiac ischemia ([2]; compound A 1 mg/kg, control: 3 out of 11 dead due to continuation of VF): all the animal survived
- size of infarction after ischemia (ischemic myocardium): 45.8±2.9%
- morphology of ischemic myocardium under light microscope ([3]; compound A 1 mg/kg, 100× microscope): Destruction of myocytes was not evident
- ultra structure of ischemic myocytes under electron microscope ([3]; compound A 1 mg/kg, ×12000, comparing with non-ischemia myocytes): no observable damages of the myocytes and mitochondria
- Duration of mouth-opening (cerebral ischemia; [16]): 22.9 ± 5 s
- Frequency of mouth-opening (cerebral ischemia; [16]): 14.0 ± 3.2
- sever arrhythmia induced by ischemia ([5]; pig pretreated at a small dose): effectively prevented
- cardiac contractile function ([5]; pig, extremely high dose (20 times more) administered via LAD): significant decrease in cardiac contractile function
- effects on heart before ischemia ([5]; pig, small dose): no observable effects on heart
- solubility in water (Solubility in water): not Readily Dissolved in Water
- no obvious toxicity dose [6]: up to 40 mg/kg
- minimum oral lethal dose (mice): 5060 mg/kg
- median lethal dose (LD50) [7]: 650 mg/kg
- effect of a large dose on vessels and arterial pressure (arterial pressure): vasodilation and lowering of arterial pressure
- LD50 (rats; intraperitoneal, rats): 617 mg/kg
- median lethal dose (LD50) (rats; intravenous injection, rats): 503 mg/kg
- major symptoms of toxicity at lethal dose (rats; lethal dose): vasodilation and renal failure
- minimum oral lethal dose (rats; oral, rats): 3160 mg/kg
- oral median lethal dose (LD50) (rats; oral, rats): 3160 mg/kg

Structure (SMILES): CC1=NN(c2ccccc2)C(=O)C1 [Edaravone, reference compound]
- Duration of mouth-opening (cerebral ischemia; [12]): 17.1 ± 4.3 s
- Frequency of mouth-opening (cerebral ischemia; [12]): 13.1 ± 2.4

Structure (SMILES): C=C1C[C@@]23CC[C@H]4[C@@](C)(CCC[C@@]4(C)C(=O)O[C@@H]4O[C@H](CO)[C@@H](O)[C@H](O)[C@H]4O)[C@@H]2CC[C@]1(O[C@@H]1O[C@H](CO)[C@@H](O)[C@H](O)[C@H]1O[C@@H]1O[C@H](CO)[C@@H](O)[C@H](O)[C@H]1O)C3 [stevioside, reference compound]
- therapeutic effects on arrhythmia ([2]; stevioside 10 to 15 mg/kg, rats): No significant therapeutic effects
- therapeutic effects on cardiac contractile function [8]: No significant therapeutic effects
